Data: ChEMBL document CHEMBL3885881, “DrugMatrix”

Organism: Rattus norvegicus
Assay: DrugMatrix - Regimen: Daily Repeat
Type: toxicity, organism-based, Sprague-Dawley
Design: regimen Daily Repeat, gender Male, age 6-8 weeks
Conditions: in vivo, po, route oral GAVAGE, dose level High, vehicle 100 % WATER; for BASOPHIL / EOSINOPHIL / ERYTHROCYTE COUNT / HEMATOCRIT / HEMOGLOBIN / LEUKOCYTE COUNT / LYMPHOCYTE / MEAN CORPUSCULAR HEMOGLOBIN / MEAN CORPUSCULAR HEMOGLOBIN CONCENTRATION / MEAN CORPUSCULAR VOLUME / MONOCYTE / NEUTROPHIL / PLATELET COUNT / ABSOLUTE BASOPHIL / ABSOLUTE EOSINOPHIL / ABSOLUTE LYMPHOCYTE / ABSOLUTE MONOCYTE: tissue Blood; for ALANINE AMINOTRANSFERASE / ALBUMIN / ALKALINE PHOSPHATASE / ASPARTATE AMINOTRANSFERASE / BLOOD UREA NITROGEN / CARBON DIOXIDE / CHLORIDE / CHOLESTEROL / CREATINE PHOSPHOKINASE / CREATININE / GLUCOSE / LACTATE DEHYDROGENASE / LIPASE / PHOSPHORUS / POTASSIUM / SODIUM / TOTAL BILIRUBIN / TOTAL PROTEIN / URIC ACID: tissue Plasma

Structure (SMILES): COCCc1ccc(OCC(O)CNC(C)C)cc1 (configuration not stated) [METOPROLOL]
- BASOPHIL (120 mg/kg, 120 h, time 5 day): 0.67%
- EOSINOPHIL (120 mg/kg, 120 h, time 5 day): 4.2%
- ERYTHROCYTE COUNT (120 mg/kg, 120 h, time 5 day): 7.04 x10E6/uL
- HEMATOCRIT (120 mg/kg, 120 h, time 5 day): 45.37%
- HEMOGLOBIN (120 mg/kg, 120 h, time 5 day): 14.97 G/DL
- LEUKOCYTE COUNT (120 mg/kg, 120 h, time 5 day): 9.83 x10E3/uL
- LYMPHOCYTE (120 mg/kg, 120 h, time 5 day): 70.57%
- MEAN CORPUSCULAR HEMOGLOBIN (120 mg/kg, 120 h, time 5 day): 21.3 pg
- MEAN CORPUSCULAR HEMOGLOBIN CONCENTRATION (120 mg/kg, 120 h, time 5 day): 33 G/DL
- MEAN CORPUSCULAR VOLUME (120 mg/kg, 120 h, time 5 day): 64.57 fL
- MONOCYTE (120 mg/kg, 120 h, time 5 day): 2.6%
- NEUTROPHIL (120 mg/kg, 120 h, time 5 day): 21.47%
- PLATELET COUNT (120 mg/kg, 120 h, time 5 day): 1018.67 x10E3/uL
- ALANINE AMINOTRANSFERASE (120 mg/kg, 120 h, time 5 day): 28.67 u/L
- ALBUMIN (120 mg/kg, 120 h, time 5 day): 3.9 G/DL
- ALKALINE PHOSPHATASE (120 mg/kg, 120 h, time 5 day): 427.33 u/L
- ASPARTATE AMINOTRANSFERASE (120 mg/kg, 120 h, time 5 day): 68.67 u/L
- BLOOD UREA NITROGEN (120 mg/kg, 120 h, time 5 day): 16.33 mg/dL
- CARBON DIOXIDE (120 mg/kg, 120 h, time 5 day): 38.33 mmol/L
- CHLORIDE (120 mg/kg, 120 h, time 5 day): 106.67 MEQ/L
- CHOLESTEROL (120 mg/kg, 120 h, time 5 day): 62.33 mg/dL
- CREATINE PHOSPHOKINASE (120 mg/kg, 120 h, time 5 day): 168 u/L
- CREATININE (120 mg/kg, 120 h, time 5 day): 0.4 mg/dL
- GLUCOSE (120 mg/kg, 120 h, time 5 day): 168 mg/dL
- LACTATE DEHYDROGENASE (120 mg/kg, 120 h, time 5 day): 97 u/L
- LIPASE (120 mg/kg, 120 h, time 5 day): 14 u/L
- PHOSPHORUS (120 mg/kg, 120 h, time 5 day): 11.37 mg/dL
- POTASSIUM (120 mg/kg, 120 h, time 5 day): 6.67 MEQ/L
- SODIUM (120 mg/kg, 120 h, time 5 day): 147.67 MEQ/L
- TOTAL BILIRUBIN (120 mg/kg, 120 h, time 5 day): 0.47 mg/dL
- TOTAL PROTEIN (120 mg/kg, 120 h, time 5 day): 6.33 G/DL
- URIC ACID (120 mg/kg, 120 h, time 5 day): 1.27 mg/dL
- ABSOLUTE BASOPHIL (120 mg/kg, […], time 14 day): 90 cells/µL
- ABSOLUTE EOSINOPHIL (120 mg/kg, […], time 14 day): 60 cells/µL
- ABSOLUTE LYMPHOCYTE (120 mg/kg, […], time 14 day): 10900 cells/µL
- ABSOLUTE MONOCYTE (120 mg/kg, […], time 14 day): 270 cells/µL
- BASOPHIL (120 mg/kg, […], time 14 day): 0.67%
- EOSINOPHIL (120 mg/kg, […], time 14 day): 0.43%
- ERYTHROCYTE COUNT (120 mg/kg, […], time 14 day): 6.79 x10E6/uL
- HEMATOCRIT (120 mg/kg, […], time 14 day): 41.53%
- HEMOGLOBIN (120 mg/kg, […], time 14 day): 14.17 G/DL
- LEUKOCYTE COUNT (120 mg/kg, […], time 14 day): 13.77 x10E3/uL
- LYMPHOCYTE (120 mg/kg, […], time 14 day): 78.87%
- MEAN CORPUSCULAR HEMOGLOBIN (120 mg/kg, […], time 14 day): 20.87 pg
- MEAN CORPUSCULAR HEMOGLOBIN CONCENTRATION (120 mg/kg, […], time 14 day): 34.13 G/DL
- MEAN CORPUSCULAR VOLUME (120 mg/kg, […], time 14 day): 61.17 fL
- MONOCYTE (120 mg/kg, […], time 14 day): 1.33%
- NEUTROPHIL (120 mg/kg, […], time 14 day): 17.47%
- PLATELET COUNT (120 mg/kg, […], time 14 day): 1228.67 x10E3/uL
- ALANINE AMINOTRANSFERASE (120 mg/kg, […], time 14 day): 37 u/L
- ALBUMIN (120 mg/kg, […], time 14 day): 3.63 G/DL
- ALKALINE PHOSPHATASE (120 mg/kg, […], time 14 day): 379.33 u/L
- ASPARTATE AMINOTRANSFERASE (120 mg/kg, […], time 14 day): 68.67 u/L
- BLOOD UREA NITROGEN (120 mg/kg, […], time 14 day): 17.67 mg/dL
- CARBON DIOXIDE (120 mg/kg, […], time 14 day): 40.67 mmol/L
- CHLORIDE (120 mg/kg, […], time 14 day): 107.33 MEQ/L
- CHOLESTEROL (120 mg/kg, […], time 14 day): 51 mg/dL
- CREATINE PHOSPHOKINASE (120 mg/kg, […], time 14 day): 304.67 u/L
- CREATININE (120 mg/kg, […], time 14 day): 0.37 mg/dL
- GLUCOSE (120 mg/kg, […], time 14 day): 183.33 mg/dL
- LACTATE DEHYDROGENASE (120 mg/kg, […], time 14 day): 123.33 u/L
- LIPASE (120 mg/kg, […], time 14 day): 10.67 u/L
- PHOSPHORUS (120 mg/kg, […], time 14 day): 9.23 mg/dL
- POTASSIUM (120 mg/kg, […], time 14 day): 6.17 MEQ/L
- SODIUM (120 mg/kg, […], time 14 day): 144 MEQ/L
- TOTAL BILIRUBIN (120 mg/kg, […], time 14 day): 0.4 mg/dL
- TOTAL PROTEIN (120 mg/kg, […], time 14 day): 5.9 G/DL
- URIC ACID (120 mg/kg, […], time 14 day): 0.17 mg/dL
- ABSOLUTE BASOPHIL (1200 mg/kg, 72 h, time 3 day): 0 CELLS/uL
- ABSOLUTE EOSINOPHIL (1200 mg/kg, 72 h, time 3 day): 286.33 CELLS/uL
- ABSOLUTE LYMPHOCYTE (1200 mg/kg, 72 h, time 3 day): 11270.67 CELLS/uL
- ABSOLUTE MONOCYTE (1200 mg/kg, 72 h, time 3 day): 0 CELLS/uL
